Here are results for one compound from patent US20250339408A1, “TREATMENT AND PREVENTION OF BASAL CELL CARCINOMA WITH TOPICAL COMPOSITION COMPRISING PATIDEGIB” (Sol-Gel Technologies Ltd., priority 2023, published 2025).

Structures are written as SMILES.

Assay [1] deals with basal cell carcinoma (BCC) lesions on the face. Briefly: Randomized, double-blind, vehicle-controlled study of Patidegib Topical Gel, 2% in Gorlin syndrome participants, ITT, all types of subjects (Example 3). In kind it is in vivo, human. The conditions noted are these: PTCH1 mutation not required, gel 2% twice daily to face. The source says: (§1) A randomized, double-blind, stratified, vehicle-controlled study was done, measuring the efficacy and safety of Patidegib Topical Gel, 2%, applied topically twice daily to the face of adult participants with Gorlin syndrome. The Participants were required to apply the investigational product for 12 months. The primary endpoint is a comparison between the two treatment arms of the number of new BCCs that develop over the 12 month period.
Participants will be randomized to receive Patidegib Topical Gel, 2%. The Patidegib Topical Gel, 2% will be dispensed to participants at each study visit and applied topically twice daily to the face.
Participants will be randomized to receive Vehicle. The Patidegib Topical Gel, Vehicle will be dispensed to participants at each study visit and applied topically twice daily to the face.
• 1. The participant must be age at least 18 years of age at the Screening Visit. • 2. The participant must provide written informed consent prior to any study procedures. • 3. The participant must meet diagnostic criteria for the basal cell nevus (Gorlin) syndrome including major criterion #3a plus 1 additional major criterion or plus 2 additional minor criteria listed below.
• a. >2 histologically confirmed BCCs or 1 for participant under age 20. • b. Odontogenic keratocysts of the jaw confirmed histologically. • c. ≥3 palmar and/or plantar pits seen at the Screening Visit. • d. Bilamellar calcification of the falx cerebri present at less than 20 years of age. • e. Fused, bifid, or markedly splayed ribs. • f. First degree relative with Gorlin syndrome. • g. Patched protein 1 (PTCH1) mutation predicted to be of functional significance in normal tissue.
• h. Macrocephaly. • i. Congenital malformations including frontal bossing, cleft lip or palate, “coarse face”, moderate to severe hypertelorism. • j. Skeletal abnormalities detectable clinically: Sprengel deformity, marked pectus deformity, or marked finger syndactyly. • k. Skeletal abnormalities detectable radiographically: bridging of the sella turcica; vertebral abnormalities such as hemivertebrae, fusion or elongation of the vertebral bodies; modeling defects of the hands and feet; flame shaped lucencies of the hands or feet. • l. Ovarian fibroma. • m. Medulloblastoma (Modification of criteria of V Kimonis et al Am J Med Genet 69: 299-308, 1997). • 4. The participant must have 10 (with at least 3 on the face) clinically typical BCCs present within 24 months prior to Randomization (Baseline/Day 1). Additionally, the subject must have at least 2 BCCs with longest diameter <5 mm present on the face prior to Randomization (Baseline/Day 1). • 5. […] The participant is willing for all facial BCCs to be evaluated and treatment recommendations made only by the Investigator. • 10. […]

The test system is the same in assay [2]. The experiment in a line: Post hoc analysis of the Example 3 trial: Gorlin patients without PTCH1 mutation (Example 4). The class given is in vivo, human. The conditions noted are these: for Number of qualifying nSEBs, observed, Mean / Number of new BCCs excluding no longer suspicious BCCs, observed, Mean: Gorlin syndrome without PTCH1 mutation, gel 2% twice daily to face; for Number of qualifying nSEBs, observed, Mean: baseline total BCC lesions at least 10; for Number of new BCCs excluding no longer suspicious BCCs, observed, Mean: baseline total facial BCC lesions at least 10. As for the experimental part: as §1
A post hoc analysis was performed on the results of the clinical trial of Example 3 to analyze the impact of Patidegib on patients without PTCH1 mutation.

`CC1=C2C[C@H]3[C@@H](CC[C@@H]4C[C@H](NS(C)(=O)=O)CC[C@@]43C)[C@@H]2CC[C@@]2(C1)O[C@@H]1C[C@H](C)CN[C@H]1[C@H]2C` [Patidegib]: the “Proportion of SEBs clinically resolved, observed, Mean” value in assay [1] (month 3) is recorded as 7.72; in assay [1] (month 6), 6.91; in assay [1] (month 9), 9.13; in assay [1] (month 12), 15.03. The “Overall efficacy (in words)” value in assay [2] (Gorlin syndrome subjects who lacked the PTCH1 mutation (Examples 3 and 4)) is recorded as “produced no effect”. The “Number of qualifying nSEBs, observed, Mean” value in assay [2] (month 3) is on record as 0.25; in assay [2] (month 6) it was 0.92; in assay [2] (month 9), 1.38; in assay [2] (month 12) it was 2.50. For the same compound, the “Number of new BCCs excluding no longer suspicious BCCs, observed, Mean” value is reported as 1.00 in assay [2] (month 3), 2.92 in assay [2] (month 6), 4.75 in assay [2] (month 9) and 6.67 in assay [2] (month 12).
